We go through seven compounds from paper PMC9321663, “The DevTox Germ Layer Reporter Platform: An Assay Adaptation of the Human Pluripotent Stem Cell Test” (Toxics, 2022).

Data set [1] deals with BRA (mesoderm marker) in RUES2-GLR cells. As to the kind of experiment: DevTox GLR-Endo assay: increase in percent BRA-positive cells (AEID 3096, Bra_up). The data set is classed as cell-based, human. The following applies: for HIT−CALL: tcpl plot AEID3096, COFF 0.774; for MAX_MEAN: tcpl plot AEID3096, maximum mean response; for MAX_MED: tcpl plot AEID3096, maximum median response. On the procedure: (§1) The total test chemical incubation period was 48 h.
(§2) (Supplementary Materials).

Data set [2] concerns o/c ratio in H9 embryonic stem cells. The following applies: Teratogen Index, o/c ratio; cited from earlier work.
The subject of data set [3] is SOX2 (ectoderm and pluripotency marker) in RUES2-GLR cells. Nature of the data set: DevTox GLR-Endo assay: increase in percent SOX2-positive cells (AEID 3095, Sox2_up). As to conditions: for AC50 / Emax: Homo sapiens; for AC50: read-out: ga (winning model); for Emax: read-out: tp (winning model); for MAX_MEAN: tcpl plot AEID3095, maximum mean response; for MAX_MED: tcpl plot AEID3095, maximum median response.

In data set [4] the test system is SOX17 (endoderm marker) in RUES2-GLR cells. As to the kind of experiment: DevTox GLR-Endo assay: decrease in percent SOX17-positive cells (AEID 3094, Sox17_dn). As to conditions: for AC50 / Emax: Homo sapiens; for AC50: read-out: ga (winning model), tcpl plot AEID3094, gain parameter of winning curve fit (log concentration, µM axis), hit calls only (converted); for Hit Call: Table S2, SOX17-positive cells, cutoff 3*bmad; for HIT−CALL: tcpl plot AEID3094, COFF 20.3; for DevTox ACC: Table S2, percent SOX17-positive cells; for DevTox ACC / DevTox-GLR Endo ACC: 48 h exposure; for DevTox-GLR Endo ACC: activity concentration at cutoff, SOX17-positive cells. An outline of the steps:
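Readouts are loss of SOX17-positive fraction and reduced cell number in endoderm-differentiating RUES2-GLR cells after 48 h of chemical exposure. Controls: undifferentiated and differentiated cells, 0.2% DMSO, and 1 µM SB431542; at least four biological replicates.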

Another data set concerns RUES2-GLR cells. As to the kind of experiment: DevTox GLR-Endo assay: decrease in total cell count, cytotoxicity (AEID 3098, CellCount_dn). The following applies: for Emax: Homo sapiens, read-out: Cell Count % Max Inhibition.
The subject of data set [5] is SOX17 (endoderm marker) in RUES2-GLR cells. Nature of the data set: DevTox GLR-Endo assay: increase in percent SOX17-positive cells (AEID 3093, Sox17_up). The data set is classed as cell-based, human. As to conditions: for Emax: Homo sapiens; for HIT−CALL: tcpl plot AEID3093, COFF 20.3. The method, then: as §1, §2
The conditions of data set [6]: cited from earlier work; for Classification: developmental toxicant classification (Teratogen / Non-Teratogen) of reference and training chemicals, ref DOI per chemical: 10.1093/toxsci/kft239, 10.1093/toxsci/kfaa014, 10.1177/026119290203000204, 10.1038/s41598-020-59542-x; for DT Class.: developmental toxicant classification, chemicals common with quickPredict; for Development Toxicant Classification: Table S2.

Where [7] appears, read: tcpl plot AEID3093, maximum mean response, read-out: MAX_MEAN.
Where [8] appears, read: tcpl plot AEID3093, maximum median response, read-out: MAX_MED.
The mark [9] stands for this setting: read-out: DevTox % Max Inhibition.

Read-outs that look alike come from different tables or passages of the source.

Turning to `CN(C)CCOC(c1ccccc1)c1ccccc1` [Diphenhydramine], the “HIT−CALL” value in data set [1] is listed as 1; in data set [4], 1; in data set [5], 0. The MAX_MEAN in data set [1] is given as 1.61 Percent Activity; in data set [3], 2.92 Percent Activity. The MAX_MED is given as 1.58 Percent Activity in data set [1] and 1.57 Percent Activity in data set [3]. Besides, the “quickPredict TI” value in data set [2] is on record as 0.588 µM. Also, the AC50 in data set [3] was 631 µM; in data set [4], 61.7 µM. Moreover, the Emax in data set [3] was 2.12%; in data set [4] (read-out: tp (winning model)), 117%; in the data set on RUES2-GLR cells, 78.9%; in data set [5] (setting [7]), -0.267%; in data set [5] (setting [8]), -1.82%. The “Hit Call” value in data set [4] is recorded as “Positive”.

Turning to `CCCCc1oc2ccccc2c1C(=O)c1cc(I)c(OCCN(CC)CC)c(I)c1` [Amiodarone], the “quickPredict TI” value in data set [2] was 5.1 µM. In data set [6], the Classification entry is “Teratogen” and the “DT Class.” value is given as “Pos”. Moreover, in data set [3], the AC50 is 11.7 µM, the Emax came to 1.23%, the MAX_MEAN came out at 2.82 Percent Activity and the MAX_MED was found to be 2.22 Percent Activity. Further, in data set [4], the AC50 was 17 µM, the “Hit Call” value is given as “Positive” and the “HIT−CALL” value is 1. The Emax in the data set on RUES2-GLR cells worked out at 97.1%. The Emax in data set [5] (setting [7]) was 6.18%. For the same compound, the Emax in data set [5] (setting [8]) was 3.59%. Further, in data set [5], the “HIT−CALL” value stood at 0.

Take `Nc1ccn([C@@H]2O[C@H](CO)[C@@H](O)[C@@H]2O)c(=O)n1` [Cytarabine]: in data set [2], the “quickPredict TI” value is on record as 0.054 µM. Besides, in data set [6], the Classification result is “Teratogen” and the “DT Class.” value is given as “Pos”. In data set [3], the AC50 was 0.582 µM, the Emax turned out to be 2.27%, the MAX_MEAN was 2.89 Percent Activity and the MAX_MED is reported as 2.91 Percent Activity. In addition, the Emax in data set [4] (setting [9]) is 102%. Moreover, the Emax in data set [4] (read-out: MAX_MEAN) stood at 102%. Also, the Emax in data set [4] (read-out: MAX_MED) is 102%. Also, in data set [4], the AC50 was 0.557 µM, the “Hit Call” value is listed as “Positive”, the “DevTox ACC” value was determined as 0.4557 µM and the “DevTox-GLR Endo ACC” value was determined as 0.46 µM. Also, in data set [4], the “HIT−CALL” value turned out to be 1. The Emax in data set [4] (read-out: tp (winning model)) was found to be 102%. Further, in the data set on RUES2-GLR cells, the “effect on cell count (in words)” value is on record as “significant decreases in cell count” and the Emax came to 86.7%. In the data set with RUES2-GLR cells (human, 48 h), the “Cell Count ACC” value was found to be 0.05231 µM and the “DevTox-GLR Endo CC” value amounted to 0.05 µM. For the same compound, in data set [5] (setting [7]), the Emax worked out at 12.2%. Also, the Emax in data set [5] (setting [8]) stood at 12.7%. Also, the “HIT−CALL” value in data set [5] was 0.

As for `CC[C@H](C)C(=O)O[C@H]1C[C@@H](C)C=C2C=C[C@H](C)[C@H](CC[C@@H]3C[C@@H](O)CC(=O)O3)[C@H]21` [Lovastatin], in data set [2], the “quickPredict TI” value was 5.1 µM. Moreover, in data set [6], the “Development Toxicant Classification” value was “Positive”, the Classification entry is given as “Teratogen” and the “DT Class.” value is recorded as “Pos”. In data set [3], the AC50 is 36.3 µM, the Emax was determined as 13.5%, the MAX_MEAN worked out at 21.1 Percent Activity and the MAX_MED is given as 14.8 Percent Activity. The Emax in data set [4] (setting [9]) is 102%. Besides, in data set [4] (read-out: MAX_MEAN), the Emax was determined as 102%. In addition, in data set [4] (read-out: MAX_MED), the Emax came out at 102%. Also, in data set [4], the AC50 was 11.2 µM, the “Hit Call” value was “Positive”, the “DevTox ACC” value was determined as 0.9345 µM and the “DevTox-GLR Endo ACC” value amounted to 0.93 µM. Further, in data set [4], the “HIT−CALL” value came to 1. The Emax in data set [4] (read-out: tp (winning model)) came out at 123%. The Emax in the data set with RUES2-GLR cells stood at 95.4%. For the same compound, in the data set with RUES2-GLR cells (human, 48 h), the “Cell Count ACC” value worked out at 0.7145 µM and the “DevTox-GLR Endo CC” value stood at 0.71 µM. The Emax in data set [5] (setting [7]) is -9.76%. The Emax in data set [5] (setting [8]) was -10.1%. Further, the “HIT−CALL” value in data set [5] turned out to be 0.

Consider `CCCCC(CC)COC(=O)c1ccccc1C(=O)O` (stereo not drawn) [MEHP], for which the “HIT−CALL” value stood at 0 in data set [1], 1 in data set [4] and 0 in data set [5]. Moreover, the MAX_MEAN is listed as 1.95 Percent Activity in data set [1]; 1.85 Percent Activity in data set [3]; 65.4 Percent Activity in data set [4] (tcpl plot AEID3094, maximum mean response); 6.64 Percent Activity in data set [5] (tcpl plot AEID3093, maximum mean response). In addition, the MAX_MED in data set [1] is listed as 1.69 Percent Activity; in data set [3] it was 1.77 Percent Activity; in data set [4] (tcpl plot AEID3094, maximum median response) it was 67.7 Percent Activity; in data set [5] (tcpl plot AEID3093, maximum median response) it was 12.4 Percent Activity. Besides, the “quickPredict TI” value in data set [2] is 167 µM. The “Hit Call” value in data set [4] was “Positive”. In addition, the “DevTox % Max Inhibition” value in data set [4] (Table S2, percent SOX17-positive cells relative to DMSO) is 67.6802%. The “DevTox ACC” value in data set [4] is reported as 76.3285 µM. Further, the “DevTox-GLR Endo ACC” value in data set [4] stood at 76.33 µM. For the same compound, the “ga (winning model)” value in data set [4] (tcpl plot AEID3094, gain parameter of winning curve fit (log concentration, µM axis), hit calls only) is listed as 2.11. In data set [4] (tcpl plot AEID3094, top of winning curve fit (Hill or gain-loss), hit calls only), the “tp (winning model)” value is 89.3. In addition, the “Cell Count ACC” value in the data set on RUES2-GLR cells is given as 61.5464 µM. Moreover, in the data set with RUES2-GLR cells, the “DevTox-GLR Endo CC” value is recorded as 61.55 µM. The “Cell Count % Max Inhibition” value with RUES2-GLR cells (Table S2, cell count relative to DMSO) was 76.1511%.

`CO[C@H]1/C=C/O[C@@]2(C)Oc3c(C)c(O)c4c(O)c(c(/C=N/N5CCN(C)CC5)c(O)c4c3C2=O)NC(=O)/C(C)=C\C=C\[C@H](C)[C@H](O)[C@@H](C)[C@@H](O)[C@@H](C)[C@H](OC(C)=O)[C@@H]1C` [Rifampicin]: the “quickPredict TI” value in data set [2] is 2.46 µM. In addition, in data set [6], the “Development Toxicant Classification” value is “Positive”, the Classification entry is recorded as “Teratogen” and the “DT Class.” value is listed as “Pos”. Further, in data set [3], the MAX_MEAN is 0.548 Percent Activity and the MAX_MED was found to be 0.542 Percent Activity. The Emax in data set [4] (setting [9]) was 101%. In addition, in data set [4] (read-out: MAX_MEAN), the Emax was found to be 102%. The Emax in data set [4] (read-out: MAX_MED) was determined as 101%. In addition, in data set [4], the AC50 is 67.6 µM, the “Hit Call” value is reported as “Positive”, the “DevTox ACC” value was 37.8542 µM and the “DevTox-GLR Endo ACC” value amounted to 37.85 µM. The “HIT−CALL” value in data set [4] is 1. Moreover, the Emax in data set [4] (read-out: tp (winning model)) was 108%. The Emax in the data set on RUES2-GLR cells was determined as 92.4%. Moreover, in the data set on RUES2-GLR cells (human, 48 h), the “Cell Count ACC” value is reported as 18.1066 µM and the “DevTox-GLR Endo CC” value turned out to be 18.11 µM. The Emax in data set [5] (setting [7]) is 7.3%. Further, the Emax in data set [5] (setting [8]) turned out to be 7.36%. For the same compound, in data set [5], the “HIT−CALL” value is on record as 0.

For `COc1ccc2c(c1)c(CC(=O)O)c(C)n2C(=O)c1ccc(Cl)cc1` [Indomethacin], the “quickPredict TI” value in data set [2] was 72.7 µM. The AC50 was 12.9 µM in data set [3] and 13.2 µM in data set [4]. Further, the Emax stood at 6.38% in data set [3]; 101% in data set [4] (setting [9]); 100% in data set [4] (read-out: MAX_MEAN); 101% in data set [4] (read-out: MAX_MED); 101% in data set [4] (read-out: tp (winning model)); 92.5% in the data set with RUES2-GLR cells. The Emax in data set [5] (setting [7]) was 0.625%; in data set [5] (setting [8]) it was -1.03%. Moreover, the MAX_MEAN in data set [3] was 6.48 Percent Activity. Further, the MAX_MED in data set [3] was 6.65 Percent Activity. The “Hit Call” value in data set [4] was “Positive”. For the same compound, in data set [4], the “DevTox ACC” value was 9.385 µM. Further, the “DevTox-GLR Endo ACC” value in data set [4] was 9.38 µM. In addition, the “HIT−CALL” value in data set [4] is 1; in data set [5] it was 0. For the same compound, the “Cell Count ACC” value in the data set with RUES2-GLR cells (human, 48 h) is 8.702 µM. In the data set on RUES2-GLR cells (human, 48 h), the “DevTox-GLR Endo CC” value was found to be 8.70 µM.
